{
  "source": "paper PMC9413491",
  "about": "“A Novel and Cross-Species Active Mammalian INDY (NaCT) Inhibitor Ameliorates Hepatic Steatosis in Mice with Diet-Induced Obesity” (Metabolites, 2022)",
  "key": {"human NaCT": {"target": "T1, human NaCT (Homo sapiens, UniProt Q86YT5)", "T1 construct": "citrate uptake into HepG2 cells, which endogenously expressed NaCT; host or cells: HepG2", "T1 sequence (Q86YT5 whole entry)": "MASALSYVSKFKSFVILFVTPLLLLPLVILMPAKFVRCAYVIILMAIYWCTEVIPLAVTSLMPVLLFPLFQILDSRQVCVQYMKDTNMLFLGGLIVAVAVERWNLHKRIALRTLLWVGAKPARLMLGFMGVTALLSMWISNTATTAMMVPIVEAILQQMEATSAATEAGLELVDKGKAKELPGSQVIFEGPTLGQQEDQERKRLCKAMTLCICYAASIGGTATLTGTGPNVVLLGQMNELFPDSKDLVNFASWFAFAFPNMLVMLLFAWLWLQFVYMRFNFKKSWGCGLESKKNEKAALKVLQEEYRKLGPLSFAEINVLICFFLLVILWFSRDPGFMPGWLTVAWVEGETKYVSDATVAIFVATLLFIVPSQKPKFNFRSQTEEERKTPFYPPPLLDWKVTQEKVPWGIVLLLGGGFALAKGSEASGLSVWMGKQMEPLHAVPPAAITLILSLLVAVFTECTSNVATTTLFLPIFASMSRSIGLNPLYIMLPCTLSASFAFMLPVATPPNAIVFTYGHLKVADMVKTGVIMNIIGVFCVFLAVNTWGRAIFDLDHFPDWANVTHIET", "experiment": "[14C] citrate uptake in HepG2 cells endogenously expressing human NaCT", "assay_type": "cell-based", "description": "We determined activity on human NaCT by measuring citrate uptake into HepG2 cells, which endogenously expressed NaCT [37] and for mouse Nact, using HEK293 cells recombinantly expressing mouse Nact (HEK-Nact). We cloned the mouse Slc13a5 cDNA encoding Nact as described previously.\nFor radiometric [14C] citrate uptake assays, we used Cytostar-T plates (Perkin Elmer#RPNQ0166, Waltham, MA, USA). For each assay, we seeded 20,000 HepG2 cells per well on collagen coated 384-well Cytostar-T plates or 5000 HEK293 cells per well on ploy-D-lysine coated 384-well Cytostar-T plates. On the following day, we changed culture medium to assay buffer: 120 mM NaCl, 5.4 mM KCl, 0.8 mM MgSO4, 5 mM glucose, 1.8 mM CaCl2, 25 mM Hepes, 25 mM MES, pH 6.5 (human) and pH 7.5 (mouse). We preincubated cells with compounds at 37 °C for 20 min, after which we added [14C] citrate (3 µM for HEK cells and 10 µM for HepG2 cells) and incubated cells for 50 min at 37 °C. After cooling down for 15 min at 4 °C, we measured the counts using a Microbeta2 reader system (Perkin Elmer)."}, "human NaDC3 (SLC13A3)": {"target": "T2, human NaDC3 (SLC13A3) (Homo sapiens, UniProt Q8WWT9)", "T2 construct": "expressed in transfected cells; host or cells: HEK293 (HEK-NaDC3), hygromycin selection", "T2 sequence (Q8WWT9 1-602)": "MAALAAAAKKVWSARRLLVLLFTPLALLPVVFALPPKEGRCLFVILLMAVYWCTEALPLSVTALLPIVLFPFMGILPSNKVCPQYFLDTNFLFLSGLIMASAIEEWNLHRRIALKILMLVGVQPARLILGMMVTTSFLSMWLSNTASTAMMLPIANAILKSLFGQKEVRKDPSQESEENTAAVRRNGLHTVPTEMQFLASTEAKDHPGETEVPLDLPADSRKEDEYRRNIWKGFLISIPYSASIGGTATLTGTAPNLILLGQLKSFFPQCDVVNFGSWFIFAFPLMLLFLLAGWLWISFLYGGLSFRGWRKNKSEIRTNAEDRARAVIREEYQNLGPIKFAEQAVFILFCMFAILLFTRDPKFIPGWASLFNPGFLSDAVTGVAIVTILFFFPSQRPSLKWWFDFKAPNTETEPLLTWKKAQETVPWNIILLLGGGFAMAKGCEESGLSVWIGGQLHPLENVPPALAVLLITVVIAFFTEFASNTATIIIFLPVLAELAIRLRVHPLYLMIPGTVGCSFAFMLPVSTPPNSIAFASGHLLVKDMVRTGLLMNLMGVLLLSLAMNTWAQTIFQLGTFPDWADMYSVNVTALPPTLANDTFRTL", "experiment": "[14C] succinate uptake in HEK293 cells overexpressing human NaDC3", "assay_type": "cell-based", "description": "We obtained the compound by screening a library containing more than 50,000 highly diverse lead-like compounds from the Evotec Discovery Library (Evotec SE) and progressing initial hit-through-hit expansion and hit-to-lead optimisation phases. Compound library details are described under https://www.evotec.com/en/execute/drug-discovery-services/hit-identification (accessed on 5 August 2022). We used [14C] citrate uptake assays with HEK293 cells overexpressing recombinant human NaCT (HEK-NaCT). For confirmation, we measured citrate uptake using HepG2 cells which endogenously express NaCT. Furthermore, we measured activity on mouse Nact in a similar assay system using HEK293 cells recombinantly expressing murine Nact (HEK-Nact). We then tested the selectivity of selected compounds with another transporter of the same family—NaDC3. Selectivity was determined by a succinate uptake assay for NaDC3 using HepG2 cells or using HEK293 cells overexpressing recombinant human NaDC3.\nFor radiometric [14C] succinate uptake assays, we applied HEK cells overexpressing human NaDC3 and measured according to the procedure described previously, with a modified incubation buffer of HBSS buffer, supplemented with 20 mM HEPES, pH 7.4 and positive control 2,2-Dimethylsuccinic acid (Sigma-Aldrich, St. Louis, MO, USA)."}, "[1]": {"experiment": "Viability (PrestoBlue) / cytotoxicity in HepG2 cells", "assay_type": "cell-based", "conditions": "human, parallel to fatty acid synthesis assay", "experimental": "We performed the fatty acid synthesis assay in HepG2 cells. We seeded cells into black clear-bottom 96-well plates (Corning 3340 cell plate) 75,000/well and incubated at 37 °C. After 16–24 h, we washed the plates once with 100 µL PBS (+CaCl2 +MgCl2) and added 50 µL assay medium ([…] containing 11 mM glucose, 10 mM HEPES, and 1 nM insulin) per well. Then, we applied test substances in assay medium (10 µL, 5% DMSO) and incubated for 20 min at 37 °C. Thereafter, we added 10 µL assay medium containing [14C] citrate (final concentration 50 µM) and PrestoBlue reagent (1× final concentration; Thermo Fisher Scientific, Waltham, MA, USA) and incubated for 180 min (37 °C, 5% CO2). We measured cell viability (ViewLux instrument, Perkin Elmer). We removed medium by vacuum aspiration and washed cells once with 100 µL PBS (+CaCl2 +MgCl2). We lysed cells with 50 µL lysis buffer (0.1 N NaOH, 0.1 % Triton X-100) and sealed plates with Tape Pads and vortexed. For the saponification reaction, we incubated plates for 16–24 h at 70 °C in a humidified environment. Then, we removed seals and added 200 µL 0.1 N HCl to neutralise the pH. We transferred 150 µL from each into corresponding wells of a 96-well Flash plate (Perkin Elmer) and sealed with TopSeal A (Perkin Elmer). […] We measured [14C] radioactivity (microbeta2, Perkin Elmer). […]"}, "[2]": {"experiment": "Blood-brain barrier penetration: brain versus liver concentrations", "assay_type": "in vivo", "conditions": "brain vs liver"}, "DIO mice": {"test_system": "DIO mice", "experiment": "7-day treatment of diet-induced obesity (DIO) mice", "assay_type": "in vivo, mouse", "conditions": "15 mg/kg twice daily, 7 days, p < 0.001 pair-fed, p < 0.05 vehicle"}},
  "data": [
    {"smiles": "O=C(Nc1cc(Cl)cc(C(F)(F)F)c1)OCCC(F)(F)F", "note": "[ETG-5773]", "values": [
      {"measurement": "In vitro activity relative to PF-06649298", "setting": "human NaCT; ETG-5773 more active than PF-06649298", "value": "more than 100 fold"},
      {"measurement": "IC50", "setting": "human NaCT; HepG2, human NaCT, citrate substrate", "value": 0.16, "unit": "µM"},
      {"measurement": "IC50", "setting": "human NaDC3 (SLC13A3); HEK293 overexpressing human NaDC3, succinate substrate", "value": "> 20", "unit": "µM"},
      {"measurement": "Selectivity for NaCT against NaDC3", "setting": "human NaDC3 (SLC13A3); NaCT citrate uptake vs NaDC3 succinate uptake", "value": "more than 100 fold"},
      {"measurement": "IC50 at 180 min", "setting": "[1]", "value": "> 50", "unit": "µM"},
      {"measurement": "Concentration in brain relative to liver (lower)", "setting": "[2]", "value": 30, "unit": "fold"},
      {"measurement": "Plasma β-hydroxybutyrate (β-HBA) concentrations vs pair-fed and vehicle", "setting": "DIO mice", "value": "significantly increased"}
    ]}
  ]
}
